# Laboratory results published in US12404269B2, “Aminoquinazolinone and aminoisoquinolinone derivatives and application thereof” (ZHEJIANG UNIVERSITY, priority 2018, dated 2025).
# How the values were obtained:
# PI3Kα = target: T1, PI3Kα (Homo sapiens, UniProt P42336); assay: PI3Kα molecular activity test (ADP-GLO); format: biochemical; settings: for Selectivity (PI3Kδ IC50/PI3KαIC50): PI3Kδ IC50/PI3Kα IC50; for IC50: recombinant protein, 100 μM ATP, 2 hours at room temperature
# T1 construct: purchased Carna Bioscience
# Protocol: (§1) Instrument: ELISA Reader Envision™ (PerkinElmer, USA)
# (§2) Materials: Human recombinant PI3K and PI3Kδ proteins, purchased from Carna Bioscience; ADP-GLO kit, purchased from Promega.
# (§3) Take the PI3Kα Molecular Activity Test as an Example to Describe the Text Method of the PI3K Subtypes
# (§4) PI3K-α recombinant protein and substrate ATP were diluted with kinase reaction buffer (50 mM Tris-HCl, pH 7.4, 2.1 mM DTT, 0.05% Tween-20, 10 mM MgCl2). […] The specific reaction system was 2% of DMSO, 0.8 ng/μL PI3K-α, and 100 μM ATP, the positive compound control groups and control wells were set, and there were 3 multiple-wells for each concentration of each sample. After incubating for 2 hours at room temperature, ADP-GLO Reagent and Kinase Detection Reagent were added respectively, and then Envision™ was used to detect the […] readings. The activity rate of the samples were calculated by the sample readings, and the calculation formula was: activity rate=(ODcompound−ODcontrol)/(ODDMSO−ODcontro) ×100%.
# PI3Kδ = target: T2, PI3Kδ (Homo sapiens, UniProt O00329); assay: PI3Kδ molecular activity test (ADP-GLO); format: biochemical; settings: recombinant protein
# T2 construct: purchased Carna Bioscience
# Protocol: as §1, §2, §3, §4
# T2 sequence (O00329 whole entry): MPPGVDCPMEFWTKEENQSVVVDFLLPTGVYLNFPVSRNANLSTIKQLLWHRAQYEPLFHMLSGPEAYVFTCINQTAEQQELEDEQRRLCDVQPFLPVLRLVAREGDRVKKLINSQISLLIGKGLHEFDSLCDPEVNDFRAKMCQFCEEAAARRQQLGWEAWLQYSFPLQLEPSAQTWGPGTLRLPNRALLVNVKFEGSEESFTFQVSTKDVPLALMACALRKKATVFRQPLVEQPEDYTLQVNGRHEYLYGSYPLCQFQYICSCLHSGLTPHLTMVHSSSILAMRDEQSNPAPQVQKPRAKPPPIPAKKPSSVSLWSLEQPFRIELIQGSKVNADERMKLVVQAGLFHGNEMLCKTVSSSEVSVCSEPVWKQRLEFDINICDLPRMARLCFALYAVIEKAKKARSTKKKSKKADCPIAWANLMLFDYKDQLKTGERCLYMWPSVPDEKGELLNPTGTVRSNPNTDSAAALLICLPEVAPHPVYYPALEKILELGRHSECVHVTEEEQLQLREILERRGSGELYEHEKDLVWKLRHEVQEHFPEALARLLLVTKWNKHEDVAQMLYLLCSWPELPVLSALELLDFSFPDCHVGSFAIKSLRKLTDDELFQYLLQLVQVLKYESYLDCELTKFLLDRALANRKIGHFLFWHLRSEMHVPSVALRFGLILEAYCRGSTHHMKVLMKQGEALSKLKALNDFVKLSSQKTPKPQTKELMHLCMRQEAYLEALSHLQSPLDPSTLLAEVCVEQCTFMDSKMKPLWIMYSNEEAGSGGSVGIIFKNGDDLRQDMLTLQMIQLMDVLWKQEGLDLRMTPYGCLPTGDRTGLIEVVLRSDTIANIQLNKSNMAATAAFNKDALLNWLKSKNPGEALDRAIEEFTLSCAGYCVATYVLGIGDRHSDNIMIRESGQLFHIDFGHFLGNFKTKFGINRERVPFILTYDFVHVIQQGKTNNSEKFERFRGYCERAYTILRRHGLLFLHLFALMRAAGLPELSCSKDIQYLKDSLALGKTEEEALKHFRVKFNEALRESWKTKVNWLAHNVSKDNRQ
# T2 sequence (P27986 whole entry partner): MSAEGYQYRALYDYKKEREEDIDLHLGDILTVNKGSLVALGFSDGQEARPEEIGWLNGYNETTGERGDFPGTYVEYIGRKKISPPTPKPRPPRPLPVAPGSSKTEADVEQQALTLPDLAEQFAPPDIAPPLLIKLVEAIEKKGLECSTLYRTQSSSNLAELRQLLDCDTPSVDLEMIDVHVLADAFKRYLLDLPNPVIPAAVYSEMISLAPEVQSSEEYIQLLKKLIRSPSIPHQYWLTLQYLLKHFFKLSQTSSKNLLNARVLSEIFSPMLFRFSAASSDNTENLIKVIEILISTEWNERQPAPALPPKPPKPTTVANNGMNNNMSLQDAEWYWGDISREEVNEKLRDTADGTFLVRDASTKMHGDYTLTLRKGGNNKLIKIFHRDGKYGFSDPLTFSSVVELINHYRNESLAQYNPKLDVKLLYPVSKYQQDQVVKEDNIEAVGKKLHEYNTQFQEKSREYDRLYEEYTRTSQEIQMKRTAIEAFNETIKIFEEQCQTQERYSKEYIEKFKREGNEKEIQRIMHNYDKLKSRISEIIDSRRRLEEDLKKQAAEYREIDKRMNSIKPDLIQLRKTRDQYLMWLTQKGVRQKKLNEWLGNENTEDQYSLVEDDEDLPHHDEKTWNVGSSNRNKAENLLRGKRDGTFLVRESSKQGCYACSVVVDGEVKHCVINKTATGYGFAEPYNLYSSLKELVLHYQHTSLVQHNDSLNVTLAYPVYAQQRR
# T1 sequence (P42336 whole entry): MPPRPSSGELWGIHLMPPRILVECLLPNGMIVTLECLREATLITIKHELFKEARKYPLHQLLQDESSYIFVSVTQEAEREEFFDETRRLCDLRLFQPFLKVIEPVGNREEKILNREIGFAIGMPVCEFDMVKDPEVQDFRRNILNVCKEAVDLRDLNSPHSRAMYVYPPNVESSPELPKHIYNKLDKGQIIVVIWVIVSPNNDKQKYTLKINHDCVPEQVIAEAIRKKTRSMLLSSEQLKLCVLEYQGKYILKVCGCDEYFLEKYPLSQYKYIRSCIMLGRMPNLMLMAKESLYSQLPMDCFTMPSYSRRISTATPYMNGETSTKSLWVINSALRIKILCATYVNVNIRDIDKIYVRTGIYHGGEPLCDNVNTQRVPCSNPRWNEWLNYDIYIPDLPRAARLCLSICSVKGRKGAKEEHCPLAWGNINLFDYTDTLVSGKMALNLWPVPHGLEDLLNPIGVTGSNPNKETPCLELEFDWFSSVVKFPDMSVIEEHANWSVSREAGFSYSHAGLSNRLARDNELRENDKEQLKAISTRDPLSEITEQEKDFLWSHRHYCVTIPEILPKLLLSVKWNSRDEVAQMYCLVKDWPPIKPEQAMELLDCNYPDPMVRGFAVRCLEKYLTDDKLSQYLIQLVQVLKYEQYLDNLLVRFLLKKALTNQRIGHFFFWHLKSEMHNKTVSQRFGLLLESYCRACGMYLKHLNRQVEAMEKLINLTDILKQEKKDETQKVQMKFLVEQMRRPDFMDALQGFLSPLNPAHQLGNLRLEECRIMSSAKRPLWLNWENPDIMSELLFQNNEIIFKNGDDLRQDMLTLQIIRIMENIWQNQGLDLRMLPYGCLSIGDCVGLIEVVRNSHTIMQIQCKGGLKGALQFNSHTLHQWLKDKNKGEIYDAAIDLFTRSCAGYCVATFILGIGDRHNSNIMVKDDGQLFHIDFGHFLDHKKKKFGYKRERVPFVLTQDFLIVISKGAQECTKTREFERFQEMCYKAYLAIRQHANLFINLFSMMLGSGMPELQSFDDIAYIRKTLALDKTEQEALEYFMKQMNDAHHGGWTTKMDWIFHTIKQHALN
# T1 sequence (P27986 whole entry partner): as the sequence (P27986 whole entry partner) above
Selectivity (PI3Kδ IC50/PI3KαIC50) (PI3Kα),IC50 (PI3Kα) [nM],IC50 (PI3Kδ) [nM],Structure (SMILES)
II (“II” represents 5-10 times),< 20,20 to 200,Cn1c(NC(=O)c2cnc(N)nc2)cc2c3c(ccc2c1=O)OCCCCO3 [14a′-4]
II (“II” represents 5-10 times),< 20,20 to 200,CNC(=O)COc1ccc2c(=O)n(C)c(NC(=O)c3cnc(N)nc3)nc2c1OC [8a-4]
III (“III” represents >10 times),< 20,20 to 200,COc1c(OCCCN2CCOCC2)ccc2c(=O)n(C)c(NC(=O)c3ccnnc3)cc12 [8a′-9]
II (“II” represents 5-10 times),< 20,20 to 200,COc1c(OCCCN2CCOCC2)ccc2c(=O)n(C)c(NC(=O)c3ccc(N)nc3)nc12 [8a-16]
I (“I” represents <5 times),20 to 200,20 to 200,COc1c(OCC(N)=O)ccc2c(=O)n(C(C)C)c(NC(=O)c3cnc(N)nc3)nc12 [8c-2]
III (“III” represents >10 times),< 20,20 to 200,"COc1c(O)ccc2c(=O)n(C)c(NC(=O)c3cnc(N)nc3)nc12 [7a, 2-Amino-N-(8-methoxy-3-methyl-7-hydroxy-4-oxo-3,4-dihydroquinazolinone-2-yl) pyrimidine-5-carboxamide]"
II (“II” represents 5-10 times),< 20,20 to 200,COc1c(OCCCN2CCOCC2)ccc2c(=O)n(C)c(NC(=O)c3ccnnc3)nc12 [8a-15]
III (“III” represents >10 times),< 20,20 to 200,CCn1c(NC(=O)c2cnc(N)nc2)cc2c(OC)c(OCCC(N)=O)ccc2c1=O [8b′-3]
I (“I” represents <5 times),20 to 200,20 to 200,CCn1c(NC(=O)c2cnc(N)nc2)cc2c3c(ccc2c1=O)OCCCCO3 [14b′-4]
II (“II” represents 5-10 times),< 20,20 to 200,COc1c(OCCCN2CCOCC2)ccc2c(=O)n(C)c(NC(=O)c3cncnc3)nc12 [8a-14]
III (“III” represents >10 times),< 20,20 to 200,COc1c(OCCCC(N)=O)ccc2c(=O)n(C)c(NC(=O)c3cnc(N)nc3)nc12 [8a-9]
II (“II” represents 5-10 times),< 20,20 to 200,COc1c(OCC(=O)N2CCOCC2)ccc2c(=O)n(C)c(NC(=O)c3cnc(N)nc3)nc12 [8a-8]
I (“I” represents <5 times),20 to 200,20 to 200,"COc1c(O)ccc2c(=O)n(CC(F)F)c(NC(=O)c3cnc(N)nc3)nc12 [7f, 2-amino-N-(3-difluoroethyl-7-hydroxy-8-methoxy-4-oxo-3,4-dihydroquinazolin-2-yl) pyrimidine-5-carboxamide]"
I (“I” represents <5 times),20 to 200,20 to 200,"COc1c(O)ccc2c(=O)n(CC(F)(F)F)c(NC(=O)c3cnc(N)nc3)nc12 [7e, 2-amino-N-(3-trifluoroethyl-7-hydroxy-8-methoxy-4-oxo-3,4-dihydroquinazolin-2-yl) pyrimidine-5-carboxamide]"
II (“II” represents 5-10 times),20 to 200,< 20,CCn1c(NC(=O)c2cncnc2)nc2c(OC)c(OCCCN3CCOCC3)ccc2c1=O [8b-14]
I (“I” represents <5 times),< 20,< 20,CCn1c(NC(=O)c2cnc(N)nc2)cc2c3c(ccc2c1=O)OCCO3 [14b′-2]
II (“II” represents 5-10 times),< 20,20 to 200,Cn1c(NC(=O)c2cnc(N)nc2)cc2c3c(ccc2c1=O)OCCOCCOCCOCCO3 [14a′-7]
II (“II” represents 5-10 times),< 20,20 to 200,Cn1c(NC(=O)c2cnc(N)nc2)cc2c3c(ccc2c1=O)OCCOCCOCCO3 [14a′-6]
